For experiment [1], the system named is SMA-560 glioma cells. As to the kind of experiment: Flow cytometric cell cycle analysis. The settings on record: 0.01, 0.1 or 1 μM, 48 h, data not shown. The format is cell-based, murine. As to the method:
(§1) The adherent glioma cells were detached nonenzymatically using cell dissociation solution (Sigma). Cell cycle analysis was performed by using fixed and permeabilized glioma cells (70% ethanol). RNA was digested with RNase A (Life Technologies, Inc.). DNA was stained with propidium iodide (50 μg/ml).

Experiment [2] concerns LN-308 targets. The experiment is described as follows: Polyclonal NK cell lytic activity, 51Cr release. The format is cell-based, human. As to the method:
FIG. 3. Modulation of allogeneic anti-glioma immune responses by Compound No. 79 involves TGF-β antagonism. A. The lytic activity against LN-308 targets of PBL (squares) or purified T cells (triangles) preincubated with irradiated LN-308 cells in the absence (open symbols) or presence (filled symbols) of Compound No. 79 (1 μM) was determined in ^51Cr release assays. B-D. PBL were cultured in the absence (left) or presence (right) of irradiated LN-308 cells for 5 days. The cultures contained Compound No. 79 (1 μM) (filled bars) or not (open bars). Subsequently these effector cells were cocultured for 24 h with fresh non-irradiated LN-308 cells in the absence of Compound No. 79. The release of IFN-γ (B), TNF-α (C) or IL-10 (D) was assessed by Elispot assay. Data are expressed as cytokine-producing cells per 5×10^5 effector cells (n=3, *p<0.05, **p<0.01, t-test, effect of Compound No. 79). E, F. Polyclonal NK cell cultures were exposed to TGF-β1 (5 ng/ml) (E) or diluted (1:4) glioma cell SN (F), without or with Compound No. 79 (1 μM), for 48 h and subsequently used as effectors in ^51Cr release assays using LN-308 cells as targets. Compound No. 79 alone or TGF-β antibody alone had no effect on NK cell activity in these assays (data not shown).
Human PBMC were isolated from healthy donors by density gradient centrifugation (Biocoll, Biochrom KG). Monocytes were depleted by adhesion and differential centrifugation to obtain peripheral blood lymphocytes (PBL). To obtain purified T cells, the PBMC were depleted of B cells and monocytes using LymphoKwik T™ reagent (One Lambda Inc., Canoga Park, Calif.). […]
HLA-A2-mismatched PBL or T cells (107/25 cm2 flask) were cocultured with 106 irradiated (30 Gy) glioma cells for 5 days. […] The maximum 51Cr release was determined by addition of NP40 (1%). After 4 h the supernatants were transferred to a Luma-PlateTM-96 (Packard, Dreieich, Germany) and measured. The percentage of 51Cr release was calculated as follows: 100×([experimental release−spontaneous release]/[maximum release−spontaneous release]).

The test system of experiment [3] is LN-308 glioma cells. The experiment is described as follows: Flow cytometric cell cycle analysis. The format is cell-based, human. The note with it: 0.01, 0.1 or 1 μM, 48 h, data not shown. How it is done: as §1
Experiment [4] has as its system LN-308 glioma cells. The experiment is described as follows: Glioma cell growth, [methyl-3H]-thymidine incorporation. The format is cell-based, human. As to the method: FIG. 2. Abrogation of autocrine TGF-β signaling in glioma cells by Compound No. 79. A. The cells were seeded at 10^4 cells/well in 96 well plates and cultured in the absence or presence of Compound No. 79 for 48 h in serum-free medium. Growth was assessed by [methyl-^3H]-thymidine incorporation at 48 h (*p<0.05, t-test). B. Lysates from untreated glioma cells or cells preexposed to Compound No. 79 (1 μM) for 24 h or exposed to TGF-b2 (5 ng/ml) for 1 h or both were assessed for the levels of p-Smad2 or total Smad2/3. Note that the antibodies were specific to p-Smad2 and total Smad 2 and 3, respectively.
The glioma cells and CCL64 cells were maintained in DMEM supplemented with 2 mM L-glutamine (Gibco Life Technologies, Paisley, UK), 10% FCS (Biochrom KG, Berlin, Germany) and penicillin (100 IU/ml)/streptomycin (100 μg/ml) (Gibco). Growth and viability of the glioma cells was examined by crystal violet, LDH release (Roche, Mannheim, Germany) and trypan blue dye exclusion assays. To assess clonogenicity, 500 SMA-560 cells were seeded into 6 well plates (9.4 cm^2). After formation of visible cell formations, colonies>20 cells were counted.

Experiment [5] concerns CCL64 mink lung epithelial cells. As to the kind of experiment: CCL64 TGF-β bioassay (growth, crystal violet). The format is cell-based. As to the method:
FIG. 1. Prevention of the growth inhibitory effects of recombinant and glioma-derived TGF-b1 and TGF-b2 by a TGF-β inhibitor (Compound No. 79 in Table 2). A. CCL64 cells were exposed to human recombinant TGF-b1 (filled symbols) or TGF-b2 (open symbols) (10 ng/ml) in the absence or presence of increasing concentrations of Comopund No. 79 for 72 h. B. CCL64 cells were maintained in serum-free medium containing heat-activated glioma cell SN (1:1) in the absence or presence of Compound No. 79 for 72 h. Growth was assessed by crystal violet assay (mean and SD, n=3).
The levels of bioactive TGF-β were determined using the CCL64 bioassay. Briefly, […] CCL64 cells were adhered to 96 well plates for 24 h, full medium was replaced by serum-free medium, and the cells were exposed to recombinant TGF-β1/2 or glioma cell culture supernatants diluted in serum-free medium for 72 h. Growth was assessed by crystal violet staining at 72 h. Glioma cell supernatants were harvested from confluent cultures maintained for 48 h in serum-free medium and heat-treated (5 min, 85° C.) to activate latent TGF-β (Leitlein et al., J. Immunol., 166:7238-7243 (2001)).

With `Fc1ccc(Cl)cc1-c1nc(Nc2ccncc2)c2nccnc2n1` [Compound No. 79], the cell cycle arrest entry in experiment [1] and in experiment [3] was “no specific type of cell cycle arrest” throughout. Also, the “TGF-β-mediated inhibition of NK cell lytic activity” value in experiment [2] (TGF-β1 5 ng/ml, 1 μM, 48 h, FIG. 3E) was “relieved”. For the same molecule, the “inhibition of NK cell activity by LN-308 cell supernatants” value in experiment [2] (supernatant diluted 1:4, 48 h, FIG. 3F) is recorded as “blocked”. Also, the “NK cell activity, agent alone” value in experiment [2] (without TGF-β or supernatant, data not shown) is reported as “no effect”. Moreover, the proliferation result in experiment [4] (concentrations required to block TGF-β in the CCL64 bioassay, 48 h) is “no effect”. In experiment [4] (higher concentrations of up to 1 μM, FIG. 2A), the growth result is given as “moderately inhibited”. Besides, in experiment [5] (TGF-β1 or TGF-β2 10 ng/ml, 72 h, FIG. 1A, read-out: EC50 of rescue of TGF-β-mediated inhibition of growth), the EC50 is around 30 nM. Further, the “growth inhibition mediated by glioma cell supernatants” value in experiment [5] (diluted serum-free SMA-560 or LN-308 supernatants, same concentrations, FIG. 1B) is “nullified”.

Values taken from US20050245508A1, “Treatment of malignant gliomas with TGF-beta inhibitors” (SCIOS, Inc., priority 2003, published 2005).
